# Test results as given in patent US20260285849A1, “METHYLOPHIOPOGONONE A DERIVATIVE, AND PREPARATION AND USE THEREOF” (INSTITUTE OF MATERIA MEDICA, CHINESE ACADEMY OF MEDICAL …, priority 2022, published 2026).
# How the values were obtained:
# [1] = system: H9C2 cardiomyocytes; assay: Angiotensin II (Ang II)-induced cardiomyocyte hypertrophy model, crystal violet, cell surface area; assay type: cell-based, rat; conditions: for number of cardiomyocytes (decrease in cell number caused by AngII): 0.5 μM and 1 μM, 40 μM AngII 24 h; for surface area of a single cardiomyocyte, View 1 / surface area of a single cardiomyocyte, View 2 / surface area of a single cardiomyocyte, View 3 / surface area of a single cardiomyocyte, View 4 / surface area of a single cardiomyocyte, View 5 / Myocardial surface area: 40 μM Ang II 24 h; for surface area of a single cardiomyocyte, View 1: field of view 1; for surface area of a single cardiomyocyte, View 2: field of view 2; for surface area of a single cardiomyocyte, View 3: field of view 3; for surface area of a single cardiomyocyte, View 4: field of view 4; for surface area of a single cardiomyocyte, View 5: field of view 5; for Myocardial surface area: mean of 5 views
# Protocol: Adjust the H9C2 cardiomyocytes in the logarithmic growth phase to a density of 1.2×10^5 cells/well and inoculate them into six-well plates. […] After culturing for 24 hours, the drug administration groups are added with 40 μM Ang II and the corresponding concentrations of drugs. The Ang II+diltiazem 10 μM group is added with 40 μM Ang II and 10 μM diltiazem. The Ang II model group is added with 40 μM Ang II and an equal volume of DMSO. The blank control group is added with an equal volume of DMSO. Then, continue culturing for 24 hours. Discard the culture medium, wash the cells 3 times with PBS. Add 1 mL of methanol to each well and fix the cells at −20° C. for 20 minutes, and then let them return to room temperature. After discarding the methanol, add 1 mL of 0.5% crystal violet staining solution to each well and stain for 10 minutes. Wash the cells with clean water and take pictures under an inverted microscope. Randomly select fields of view for photographing. Use Image J software to measure the sum of the surface areas of all cardiomyocytes in the field of view and count the number of cells in the field of view at the same time to obtain the surface area of each cardiomyocyte. The surface area of a single cardiomyocyte=the sum of the surface areas of all cardiomyocytes in the field of view/the number of cardiomyocytes in the field of view.
# [2] = system: mice with isoproterenol (ISO)-induced ischemic heart disease; assay: ISO-induced ischemic heart disease mouse model: serum ANP and NT-proBNP (ELISA); assay type: in vivo; conditions: ISO 40 mg/kg s.c. 7 times
# Protocol: (§1) Male C57BL/6 mice were allowed to acclimate to the environment and then randomly divided into 9 groups, namely the blank control group, the ISO model group, the ISO+diltiazem 20 mg/kg positive control drug group, the ISO+Formula I (0.1, 0.5, 2 mg/kg) groups, and the ISO+Formula II (0.1, 0.5, 2 mg/kg) groups. Mice in the drug administration groups were intragastrically administered the corresponding doses of Formula I and Formula II compounds once a day at the same time. Mice in the positive drug diltiazem group were intragastrically administered the corresponding dose of diltiazem once a day. Mice in the blank control group and the model group were given the same amount of solvent (0.5% CMC-Na). The administration volume was 10 mL/kg, and the administration was continuous for 11 days.
# (§2) From the 4th to the 10th day of drug administration, ISO modeling was carried out. The blank control group was subcutaneously injected with normal saline, and mice in the other groups were subcutaneously injected with ISO at a dose of 40 mg/kg (modeling was performed 2 hours after drug administration), for a total of 7 times.
# Detection of Myocardial Hypertrophy/Heart Failure Biomarkers: After the drug administration ended, the animals' eyes were enucleated to collect blood. The blood was left to stand at room temperature for 2 hours, and then centrifuged at 3500 rpm for 20 minutes to separate the serum. The contents of serum ANP and NT-proBNP were determined according to the instructions of the ELISA kit.
# [3] = system: mice with isoproterenol (ISO)-induced ischemic heart disease; assay: ISO-induced ischemic heart disease mouse model: serum CK-MB (ELISA); assay type: in vivo
# Protocol: as §1, §2
# Myocardial enzyme CK-MB detection: After the administration ended, blood was collected from the animals by enucleation. The blood was left to stand at room temperature for 2 hours, and then centrifuged at 3500 rpm for 20 minutes to separate the serum. The content of CK-MB in the serum was determined according to the instructions of the ELISA kit.
# [4] = 0.1 mg/kg intragastric once a day 11 days
# [5] = 0.5 mg/kg intragastric once a day 11 days
# [6] = 2 mg/kg intragastric once a day 11 days
smiles,measurement,setting,value
"Cc1c(O)cc(O)c2c(=O)c(Cc3ccc4c(c3)OCO4)coc12 [Formula II, 3-(benzo[d][1,3]dioxol-5-ylmethyl)-5,7-dihydroxy-8-methyl-4H-chromen-4-one]",number of cardiomyocytes (decrease in cell number caused by AngII),[1]; 0.1 μM,significantly improve the decrease in cell number caused by AngII
same,"surface area of a single cardiomyocyte, View 1",[1]; 0.1 μM,346.49 μm^2
same,"surface area of a single cardiomyocyte, View 2",[1]; 0.1 μM,347.86 μm^2
same,"surface area of a single cardiomyocyte, View 3",[1]; 0.1 μM,326.61 μm^2
same,"surface area of a single cardiomyocyte, View 4",[1]; 0.1 μM,381.47 μm^2
same,"surface area of a single cardiomyocyte, View 5",[1]; 0.1 μM,353.63 μm^2
same,Myocardial surface area,[1]; 0.1 μM,351.21 ± 17.66^### μm^2
same,"surface area of a single cardiomyocyte, View 1",[1]; 0.5 μM,420.10 μm^2
same,"surface area of a single cardiomyocyte, View 2",[1]; 0.5 μM,338.84 μm^2
same,"surface area of a single cardiomyocyte, View 3",[1]; 0.5 μM,355 μm^2
same,"surface area of a single cardiomyocyte, View 4",[1]; 0.5 μM,334.83 μm^2
same,"surface area of a single cardiomyocyte, View 5",[1]; 0.5 μM,342.18 μm^2
same,Myocardial surface area,[1]; 0.5 μM,358.19 ± 31.68^### μm^2
same,"surface area of a single cardiomyocyte, View 1",[1]; 1 μM,365.93 μm^2
same,"surface area of a single cardiomyocyte, View 2",[1]; 1 μM,372.44 μm^2
same,"surface area of a single cardiomyocyte, View 3",[1]; 1 μM,366.76 μm^2
same,"surface area of a single cardiomyocyte, View 4",[1]; 1 μM,392.9 μm^2
same,"surface area of a single cardiomyocyte, View 5",[1]; 1 μM,373.9 μm^2
same,Myocardial surface area,[1]; 1 μM,374.39 ± 9.76^### μm^2
same,ANP,[2]; [4],303.60 ± 37.76 pg/mL
same,NT-proBNP,[2]; [4],34.07 ± 4.10 pg/mL
same,ANP,[2]; [5],264.38 ± 27.96 pg/mL
same,NT-proBNP,[2]; [5],31.31 ± 2.24 pg/mL
same,ANP,[2]; [6],258.19 ± 52.28 pg/mL
same,NT-proBNP,[2]; [6],31.12 ± 2.33 pg/mL
same,CK-MB,[3]; [4],15.48 ± 1.76 ng/mL
same,CK-MB,[3]; [5],12.89 ± 2.29 ng/mL
same,CK-MB,[3]; [6],12.91 ± 1.53 ng/mL
O=c1c(Cc2ccc3c(c2)OCO3)coc2cc(O)cc(O)c12 [Formula I],number of cardiomyocytes (decrease in cell number caused by AngII),[1]; 0.1 μM,significantly improve the decrease in cell number caused by AngII
same,"surface area of a single cardiomyocyte, View 1",[1]; 0.1 μM,362.68 μm^2
same,"surface area of a single cardiomyocyte, View 2",[1]; 0.1 μM,351.69 μm^2
same,"surface area of a single cardiomyocyte, View 3",[1]; 0.1 μM,344.78 μm^2
same,"surface area of a single cardiomyocyte, View 4",[1]; 0.1 μM,338.55 μm^2
same,"surface area of a single cardiomyocyte, View 5",[1]; 0.1 μM,410.64 μm^2
same,Myocardial surface area,[1]; 0.1 μM,361.67 ± 25.76^### μm^2
same,"surface area of a single cardiomyocyte, View 1",[1]; 0.5 μM,404.40 μm^2
same,"surface area of a single cardiomyocyte, View 2",[1]; 0.5 μM,360.65 μm^2
same,"surface area of a single cardiomyocyte, View 3",[1]; 0.5 μM,322.34 μm^2
same,"surface area of a single cardiomyocyte, View 4",[1]; 0.5 μM,283.2 μm^2
same,"surface area of a single cardiomyocyte, View 5",[1]; 0.5 μM,334.96 μm^2
same,Myocardial surface area,[1]; 0.5 μM,341.11 ± 40.33^### μm^2
same,"surface area of a single cardiomyocyte, View 1",[1]; 1 μM,312.97 μm^2
same,"surface area of a single cardiomyocyte, View 2",[1]; 1 μM,300.38 μm^2
same,"surface area of a single cardiomyocyte, View 3",[1]; 1 μM,328.43 μm^2
same,"surface area of a single cardiomyocyte, View 4",[1]; 1 μM,331.13 μm^2
same,"surface area of a single cardiomyocyte, View 5",[1]; 1 μM,303.72 μm^2
same,Myocardial surface area,[1]; 1 μM,315.33 ± 12.53^### μm^2
same,ANP,[2]; [4],301.02 ± 58.98 pg/mL
same,NT-proBNP,[2]; [4],39.35 ± 2.83 pg/mL
same,ANP,[2]; [5],295.85 ± 57.72 pg/mL
same,NT-proBNP,[2]; [5],43.52 ± 6.06 pg/mL
same,ANP,[2]; [6],289.01 ± 50.17 pg/mL
same,NT-proBNP,[2]; [6],40.47 ± 7.15 pg/mL
same,CK-MB,[3]; [4],14.86 ± 2.90 ng/mL
same,CK-MB,[3]; [5],13.71 ± 2.75 ng/mL
same,CK-MB,[3]; [6],15.05 ± 2.49 ng/mL
